According to patent publication US7776859B2, “Hexahydroimidazopyrazin-3-one compounds useful as modulators of androgen receptor function” (Bristol-Myers Squibb Company, priority 2005, dated 2010):

Experiments:
AR = target: T1, AR (Rattus norvegicus, UniProt P15207)
T1 sequence (P15207 1-902): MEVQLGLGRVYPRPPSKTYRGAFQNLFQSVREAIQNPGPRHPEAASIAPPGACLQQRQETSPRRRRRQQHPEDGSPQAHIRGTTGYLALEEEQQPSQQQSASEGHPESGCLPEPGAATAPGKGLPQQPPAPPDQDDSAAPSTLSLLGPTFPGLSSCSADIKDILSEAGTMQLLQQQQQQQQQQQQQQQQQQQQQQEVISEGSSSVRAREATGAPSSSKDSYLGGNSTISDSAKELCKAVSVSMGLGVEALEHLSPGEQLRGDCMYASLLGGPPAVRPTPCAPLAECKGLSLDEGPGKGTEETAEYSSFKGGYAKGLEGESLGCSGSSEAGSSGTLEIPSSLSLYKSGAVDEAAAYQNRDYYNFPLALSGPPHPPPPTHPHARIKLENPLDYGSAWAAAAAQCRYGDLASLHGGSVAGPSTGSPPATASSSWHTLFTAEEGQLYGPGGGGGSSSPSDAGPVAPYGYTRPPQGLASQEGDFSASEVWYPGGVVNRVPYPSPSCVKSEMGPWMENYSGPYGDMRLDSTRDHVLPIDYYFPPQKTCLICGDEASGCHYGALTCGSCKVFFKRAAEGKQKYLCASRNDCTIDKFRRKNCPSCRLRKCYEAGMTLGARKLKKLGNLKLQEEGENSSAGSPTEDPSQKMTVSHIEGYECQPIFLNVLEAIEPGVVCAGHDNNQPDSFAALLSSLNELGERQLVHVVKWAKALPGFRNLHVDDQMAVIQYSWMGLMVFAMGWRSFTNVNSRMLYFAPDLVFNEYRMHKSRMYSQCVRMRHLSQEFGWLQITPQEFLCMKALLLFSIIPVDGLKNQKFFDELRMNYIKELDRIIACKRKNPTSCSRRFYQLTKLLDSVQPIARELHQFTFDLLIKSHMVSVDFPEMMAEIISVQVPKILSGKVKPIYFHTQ

[1] = tested on: wild type AR (MDA 453 cells); settings: read-out: Kd for [3H]-DHT; MDA 453 cells (wild type AR), Scatchard analysis of specific binding
Procedure: For the saturation analysis, the difference between the total binding and the non-specific binding, is defined as specific binding.
Two replicates are used for each sample. After 4 hours at 37° C., cells are washed, harvested, and counted as described above. […] The K1 values are determined by application of the Cheng-Prusoff equation to the IC50 values, where:
[formula] After correcting for non-specific binding, IC50 values are determined.

With `CCC(=O)O[C@H]1CC[C@H]2[C@@H]3CCC4=CC(=O)CC[C@]4(C)[C@H]3CC[C@]12C` [TP, testosterone propionate] the “potency relative to free T” value (AR; TP versus free T, organ weight increase) was 10-30 fold and the “EC50 (increase in organ weight, VP and SV)” value (AR; immature castrated rats, dosed for 3 days) was roughly 0.03 mg.
“tritiated dihydrotestosterone [[^3H]-DHT]” gave a Kd [1] of 0.7 nM.
